Laboratory results reported in ChEMBL document CHEMBL1201862, “PubChem BioAssay data set” (2004).
The source made the active and inactive calls.

Columns and labels:
Mu-type opioid receptor [1] = biological target: T1, Mu-type opioid receptor (Homo sapiens, UniProt P35372); experiment: MOR antagonists, SAR follow-up, image-based (AID 2420); assay type: functional;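 further: compounds added before stimulation of receptor with agonist DAMGO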
Mu-type opioid receptor [2] = biological target: T1, Mu-type opioid receptor; experiment: MOR agonists by imaging, SAR follow-up, image-based (AID 2352); assay type: functional
[3] = biological target: T2, Kappa-type opioid receptor (Homo sapiens, UniProt P41145); experiment: KOR antagonists by imaging, SAR follow-up, image-based (AID 2348); assay type: functional
T2 sequence (P41145 whole entry): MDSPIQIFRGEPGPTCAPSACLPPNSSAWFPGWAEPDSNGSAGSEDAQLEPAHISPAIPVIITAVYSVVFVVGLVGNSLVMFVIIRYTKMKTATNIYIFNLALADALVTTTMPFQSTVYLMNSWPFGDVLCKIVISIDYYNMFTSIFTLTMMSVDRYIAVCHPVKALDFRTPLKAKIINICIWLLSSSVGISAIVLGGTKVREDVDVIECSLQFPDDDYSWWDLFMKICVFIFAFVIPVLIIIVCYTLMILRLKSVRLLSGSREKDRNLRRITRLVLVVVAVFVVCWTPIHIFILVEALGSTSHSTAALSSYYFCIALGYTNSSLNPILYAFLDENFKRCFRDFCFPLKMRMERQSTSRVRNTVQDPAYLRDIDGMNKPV

[4] = biological target: T2, Kappa-type opioid receptor; experiment: kappa opioid receptor blockers, cell-based, luminescence, beta-arrestin, SAR follow-up (AID 2285); assay type: functional
[5] = biological target: T2, Kappa-type opioid receptor; experiment: KOR agonist analogs, imaging readout, SAR follow-up, image-based (AID 2359); assay type: functional
[6] = biological target: T3, Delta-type opioid receptor (Homo sapiens, UniProt P41143); experiment: DOR antagonists, SAR follow-up, image-based (AID 2357); assay type: functional
T3 sequence (P41143 whole entry): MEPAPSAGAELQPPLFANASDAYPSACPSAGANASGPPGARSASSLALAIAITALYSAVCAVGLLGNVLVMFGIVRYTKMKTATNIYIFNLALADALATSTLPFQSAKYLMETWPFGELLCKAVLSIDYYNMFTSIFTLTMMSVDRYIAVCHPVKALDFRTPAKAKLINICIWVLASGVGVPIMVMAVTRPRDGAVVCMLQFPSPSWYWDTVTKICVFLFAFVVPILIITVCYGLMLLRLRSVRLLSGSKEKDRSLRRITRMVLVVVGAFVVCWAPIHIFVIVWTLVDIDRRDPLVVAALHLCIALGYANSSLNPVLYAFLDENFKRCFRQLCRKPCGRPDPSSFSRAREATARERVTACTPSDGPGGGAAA

[7] = biological target: T3, Delta-type opioid receptor; experiment: DOR agonists, SAR follow-up, image-based (AID 2370); assay type: functional
[8] = biological target: G-protein coupled receptor 55 (Homo sapiens, UniProt Q9Y2T6); experiment: GPR55 antagonists, SAR follow-up, counter-screen for GPR35 antagonist project, imaging, image-based (AID 2397); assay type: functional
Sequence of G-protein coupled receptor 55 (Q9Y2T6 whole entry): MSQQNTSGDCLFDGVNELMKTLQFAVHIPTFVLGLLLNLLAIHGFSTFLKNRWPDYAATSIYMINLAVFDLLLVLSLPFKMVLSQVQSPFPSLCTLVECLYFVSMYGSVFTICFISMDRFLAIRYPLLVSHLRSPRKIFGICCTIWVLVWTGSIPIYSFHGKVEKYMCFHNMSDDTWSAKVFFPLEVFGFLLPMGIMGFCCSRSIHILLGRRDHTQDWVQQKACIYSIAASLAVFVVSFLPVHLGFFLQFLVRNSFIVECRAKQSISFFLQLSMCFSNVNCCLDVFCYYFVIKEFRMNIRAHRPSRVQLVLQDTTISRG

[9] = biological target: T4, Probable nicotinate-nucleotide adenylyltransferase (Staphylococcus aureus (strain N315), UniProt P65502); assay type: functional, Staphylococcus aureus subsp. aureus N315; details: read-out: IC50_Mean;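 on IC50 Mean: confirmatory dose-response retesting of NadD inhibitor hits first found in an ultra-high-throughput screen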
T4 sequence (P65502 whole entry): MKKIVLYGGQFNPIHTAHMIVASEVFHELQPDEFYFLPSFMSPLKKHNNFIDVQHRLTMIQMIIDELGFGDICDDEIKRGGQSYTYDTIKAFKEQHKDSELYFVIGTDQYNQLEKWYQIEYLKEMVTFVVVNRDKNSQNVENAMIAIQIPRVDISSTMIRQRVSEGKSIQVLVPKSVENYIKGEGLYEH

Prothrombin = Prothrombin (Bos taurus, UniProt P00735); experiment: thrombin inhibition, dose response, biochemical, fluorescence polarization, uHTS hits (AID 602369); assay type: functional
[10] = tested on: Streptococcus sp. 'group A'; experiment: growth inhibition of control SK(-) GAS strain, dose response, counter-screen for streptokinase expression inhibitor project, luminescence, kanamycin, BacTiterGlo, confirmation (AID 1900); assay type: functional, organism-based
[11] = biological target: T5, Apoptotic protease-activating factor 1 (Homo sapiens, UniProt O14727); experiment: activation of Apaf-1 mediated apoptosis – fluorescent, uHTS hits, dose response (AID 588554); assay type: functional
T5 sequence (O14727 whole entry): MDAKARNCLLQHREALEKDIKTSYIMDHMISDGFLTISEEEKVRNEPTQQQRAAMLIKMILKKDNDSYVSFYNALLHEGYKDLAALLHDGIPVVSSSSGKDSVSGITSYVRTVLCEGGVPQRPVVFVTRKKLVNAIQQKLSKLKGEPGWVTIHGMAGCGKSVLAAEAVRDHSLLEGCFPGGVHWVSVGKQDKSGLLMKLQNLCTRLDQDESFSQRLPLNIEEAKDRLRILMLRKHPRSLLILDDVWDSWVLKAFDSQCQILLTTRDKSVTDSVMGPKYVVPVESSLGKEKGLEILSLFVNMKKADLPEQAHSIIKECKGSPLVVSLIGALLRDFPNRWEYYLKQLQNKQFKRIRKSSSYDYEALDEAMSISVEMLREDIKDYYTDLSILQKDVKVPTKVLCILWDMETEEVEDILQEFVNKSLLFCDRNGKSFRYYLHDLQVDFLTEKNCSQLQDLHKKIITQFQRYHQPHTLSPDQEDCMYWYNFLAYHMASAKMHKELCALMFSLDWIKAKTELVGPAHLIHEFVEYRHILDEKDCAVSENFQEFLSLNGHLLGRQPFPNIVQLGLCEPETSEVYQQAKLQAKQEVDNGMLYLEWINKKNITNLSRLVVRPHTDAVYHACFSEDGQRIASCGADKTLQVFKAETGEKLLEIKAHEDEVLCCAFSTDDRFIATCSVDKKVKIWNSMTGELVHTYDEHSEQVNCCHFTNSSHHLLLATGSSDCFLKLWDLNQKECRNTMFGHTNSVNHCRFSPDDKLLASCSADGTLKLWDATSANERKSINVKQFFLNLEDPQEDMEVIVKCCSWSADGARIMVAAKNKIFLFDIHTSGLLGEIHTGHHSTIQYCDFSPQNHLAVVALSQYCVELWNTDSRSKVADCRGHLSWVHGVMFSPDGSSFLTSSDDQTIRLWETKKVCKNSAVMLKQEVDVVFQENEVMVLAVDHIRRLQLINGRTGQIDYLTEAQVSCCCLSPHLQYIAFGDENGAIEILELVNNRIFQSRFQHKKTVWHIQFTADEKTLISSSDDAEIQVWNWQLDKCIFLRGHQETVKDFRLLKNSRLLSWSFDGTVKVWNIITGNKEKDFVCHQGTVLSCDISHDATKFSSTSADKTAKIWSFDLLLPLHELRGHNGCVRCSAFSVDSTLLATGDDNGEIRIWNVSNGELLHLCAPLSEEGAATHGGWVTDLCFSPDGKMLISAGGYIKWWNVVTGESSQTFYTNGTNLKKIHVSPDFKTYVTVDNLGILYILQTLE

[12] = biological target: 26S proteasome non-ATPase regulatory subunit 14 (Homo sapiens, UniProt O00487); experiment: inhibition of proteasome subunit RPN11 – biochemical, fluorescence polarization, uHTS hits, confirmation (AID 602368); assay type: functional
Sequence of 26S proteasome non-ATPase regulatory subunit 14 (O00487 whole entry): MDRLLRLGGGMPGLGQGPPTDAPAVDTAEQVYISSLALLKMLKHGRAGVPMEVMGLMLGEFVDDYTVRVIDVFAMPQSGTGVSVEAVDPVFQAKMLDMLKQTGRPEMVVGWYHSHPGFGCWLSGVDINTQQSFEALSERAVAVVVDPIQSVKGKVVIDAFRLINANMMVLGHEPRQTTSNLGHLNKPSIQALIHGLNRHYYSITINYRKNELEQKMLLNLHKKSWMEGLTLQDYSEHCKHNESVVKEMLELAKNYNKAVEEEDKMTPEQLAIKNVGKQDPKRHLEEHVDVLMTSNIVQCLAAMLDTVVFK

ORF 73 = ORF 73 (Human herpesvirus 8, UniProt O40947); experiment: inhibitors of C-LANA binding to LBS DNA, dose response, biochemical, fluorescence polarization, cherry-picked samples (AID 504725); set-up: species or system Human gammaherpesvirus 8;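 further: fluorescence polarization of a labeled DNA duplex reporting LANA DNA binding; potency is for inhibitors that block LANA binding to the DNA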
Sequence of ORF 73 (O40947 whole entry): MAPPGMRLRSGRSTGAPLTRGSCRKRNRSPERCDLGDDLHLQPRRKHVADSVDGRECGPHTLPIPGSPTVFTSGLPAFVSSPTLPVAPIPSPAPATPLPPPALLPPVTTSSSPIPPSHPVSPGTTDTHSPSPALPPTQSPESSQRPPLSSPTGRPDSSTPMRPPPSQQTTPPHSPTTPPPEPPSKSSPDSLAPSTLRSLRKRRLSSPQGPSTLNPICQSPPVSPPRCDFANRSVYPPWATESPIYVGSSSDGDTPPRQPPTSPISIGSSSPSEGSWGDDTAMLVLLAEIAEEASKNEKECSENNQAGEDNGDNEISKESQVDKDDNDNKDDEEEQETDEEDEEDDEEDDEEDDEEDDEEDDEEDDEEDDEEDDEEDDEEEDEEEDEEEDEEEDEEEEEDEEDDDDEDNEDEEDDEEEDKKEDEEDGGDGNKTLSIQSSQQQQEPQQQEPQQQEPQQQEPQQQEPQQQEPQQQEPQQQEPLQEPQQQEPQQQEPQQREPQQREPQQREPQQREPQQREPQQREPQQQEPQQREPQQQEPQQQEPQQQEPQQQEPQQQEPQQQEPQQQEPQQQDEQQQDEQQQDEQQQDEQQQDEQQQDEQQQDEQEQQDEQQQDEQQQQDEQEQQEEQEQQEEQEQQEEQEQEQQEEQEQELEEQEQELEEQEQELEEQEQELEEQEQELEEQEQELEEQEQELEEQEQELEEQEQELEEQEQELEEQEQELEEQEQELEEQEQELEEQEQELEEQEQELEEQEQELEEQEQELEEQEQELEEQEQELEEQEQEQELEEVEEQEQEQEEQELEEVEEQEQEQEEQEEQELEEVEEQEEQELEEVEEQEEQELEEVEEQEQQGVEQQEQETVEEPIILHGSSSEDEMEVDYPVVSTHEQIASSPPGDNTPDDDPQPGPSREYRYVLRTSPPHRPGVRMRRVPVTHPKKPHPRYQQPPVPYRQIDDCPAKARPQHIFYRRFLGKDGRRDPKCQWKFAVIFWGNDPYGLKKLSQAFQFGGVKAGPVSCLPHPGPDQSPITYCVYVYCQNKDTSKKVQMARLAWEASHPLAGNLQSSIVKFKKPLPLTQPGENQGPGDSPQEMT

Streptococcus = experiment: Group A Streptococcus viability loss, dose response, counter-screen for streptokinase expression inhibitor project, luminescence, BacTiterGlo (AID 1915); assay type: functional, organism-based;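 further: potency for reduction of bacterial viability or growth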
[13] = biological target: 72 kDa type IV collagenase (Homo sapiens, UniProt P08253); experiment: Dose Response validation of uHTS RPN11 inhibitor hits using a MMP-2 Fluorescence assay.; assay type: functional
Sequence of 72 kDa type IV collagenase (P08253 whole entry): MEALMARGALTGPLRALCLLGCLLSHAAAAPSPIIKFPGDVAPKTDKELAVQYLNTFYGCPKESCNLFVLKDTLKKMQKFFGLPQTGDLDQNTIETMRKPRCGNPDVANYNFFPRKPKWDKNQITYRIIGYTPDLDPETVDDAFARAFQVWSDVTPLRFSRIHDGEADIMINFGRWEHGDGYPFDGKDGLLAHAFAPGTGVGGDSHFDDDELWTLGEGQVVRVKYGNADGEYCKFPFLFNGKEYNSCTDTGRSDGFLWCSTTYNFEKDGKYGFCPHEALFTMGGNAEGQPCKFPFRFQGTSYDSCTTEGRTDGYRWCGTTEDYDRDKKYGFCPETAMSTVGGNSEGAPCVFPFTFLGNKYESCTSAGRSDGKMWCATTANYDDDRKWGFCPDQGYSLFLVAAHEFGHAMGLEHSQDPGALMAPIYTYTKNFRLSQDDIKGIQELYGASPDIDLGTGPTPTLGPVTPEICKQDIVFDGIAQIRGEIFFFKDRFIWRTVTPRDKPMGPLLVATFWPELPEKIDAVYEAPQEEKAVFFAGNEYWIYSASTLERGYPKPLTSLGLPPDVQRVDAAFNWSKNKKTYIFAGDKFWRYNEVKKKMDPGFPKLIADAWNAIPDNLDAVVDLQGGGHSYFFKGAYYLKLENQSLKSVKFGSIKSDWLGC

[14] = biological target: T4, Probable nicotinate-nucleotide adenylyltransferase; assay type: functional, Staphylococcus aureus subsp. aureus N315
[15] = biological target: Nucleotide-binding oligomerization domain-containing protein 2 (Homo sapiens, UniProt Q9HC29); experiment: PubChem AID 2334; assay type: functional
Sequence of Nucleotide-binding oligomerization domain-containing protein 2 (Q9HC29 whole entry, the tested form may be a part): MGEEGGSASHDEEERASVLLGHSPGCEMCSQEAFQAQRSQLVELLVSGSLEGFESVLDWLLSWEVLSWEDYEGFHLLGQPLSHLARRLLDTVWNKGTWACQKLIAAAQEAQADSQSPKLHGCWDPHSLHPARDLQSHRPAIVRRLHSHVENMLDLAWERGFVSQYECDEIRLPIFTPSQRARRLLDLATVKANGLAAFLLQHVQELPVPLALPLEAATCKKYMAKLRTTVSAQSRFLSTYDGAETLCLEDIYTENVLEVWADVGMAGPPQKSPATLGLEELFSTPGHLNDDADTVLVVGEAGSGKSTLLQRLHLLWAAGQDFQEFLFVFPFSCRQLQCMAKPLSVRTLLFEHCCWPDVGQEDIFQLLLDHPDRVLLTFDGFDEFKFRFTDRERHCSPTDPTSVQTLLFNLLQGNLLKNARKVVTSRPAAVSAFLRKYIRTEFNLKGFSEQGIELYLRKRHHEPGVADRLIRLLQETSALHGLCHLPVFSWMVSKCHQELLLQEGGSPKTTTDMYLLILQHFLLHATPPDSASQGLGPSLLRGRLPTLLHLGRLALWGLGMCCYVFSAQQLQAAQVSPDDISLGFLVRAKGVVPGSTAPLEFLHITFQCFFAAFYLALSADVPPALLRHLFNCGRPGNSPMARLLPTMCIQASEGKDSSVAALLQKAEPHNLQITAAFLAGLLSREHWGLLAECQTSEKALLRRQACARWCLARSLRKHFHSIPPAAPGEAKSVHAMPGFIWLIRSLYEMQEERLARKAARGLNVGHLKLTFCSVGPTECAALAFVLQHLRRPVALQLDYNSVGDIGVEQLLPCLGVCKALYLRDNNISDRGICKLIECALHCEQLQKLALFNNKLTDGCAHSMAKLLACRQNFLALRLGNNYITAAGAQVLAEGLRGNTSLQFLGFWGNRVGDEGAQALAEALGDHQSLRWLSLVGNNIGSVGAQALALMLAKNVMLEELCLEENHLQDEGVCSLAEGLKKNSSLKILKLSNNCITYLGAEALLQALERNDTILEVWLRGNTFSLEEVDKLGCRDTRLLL

HEK293 [16] = experiment: cells; assay type: functional, cell-based; details: Homo sapiens
[17] = growth suppression of PTEN-null colon cells, dose response, cell-based, HCT116 PTEN knockout (AID 1047); assay type: functional;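 further: HCT116 colon tumor cells with PTEN knocked out; cells exposed to compound for 60 hours before readout; potency for loss of cell viability measured by luminescence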
HEK293 [18] = experiment: cells; assay type: functional, cell-based; details: Homo sapiens; remark: listed apart in the source
HEK293 [19] = experiment: NOD1 signaling inhibitors, primary screen, cell-based, luminescence, uHTS (AID 1578); assay type: functional; details: Homo sapiens
Tumor necrosis factor = Tumor necrosis factor (Homo sapiens, UniProt P01375); experiment: TNFa-triggered NF-kB activation inhibitors, SAR follow-up, cell-based, revised (AID 2337); assay type: functional
Sequence of Tumor necrosis factor (P01375 whole entry): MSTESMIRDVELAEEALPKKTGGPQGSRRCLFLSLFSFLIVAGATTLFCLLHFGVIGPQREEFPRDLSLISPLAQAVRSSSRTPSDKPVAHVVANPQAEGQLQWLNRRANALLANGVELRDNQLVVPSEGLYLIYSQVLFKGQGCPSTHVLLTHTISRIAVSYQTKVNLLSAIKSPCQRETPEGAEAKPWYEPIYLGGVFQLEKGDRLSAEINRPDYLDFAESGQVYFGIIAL

HEK293 [20] = experiment: cells; details: Homo sapiens
[21] = growth suppression of beta-catenin-knockout colon cells, dose response, cell-based, HCT116, human colon tumor (AID 1045); assay type: functional;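 further: HCT116 colon tumor cells with beta catenin knocked out; cells exposed to compound for 60 hours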
[22] = biological target: Nucleotide-binding oligomerization domain-containing protein 1 (Homo sapiens, UniProt Q9Y239); experiment: NOD1 signaling inhibitors, SAR follow-up, revised (AID 2333); assay type: functional
HEK293 [23] = experiment: NOD2 signaling inhibitors in MDP-stimulated cells, cell-based, uHTS, luminescence (AID 2001); assay type: functional; details: Homo sapiens

T1 sequence (P35372 whole entry): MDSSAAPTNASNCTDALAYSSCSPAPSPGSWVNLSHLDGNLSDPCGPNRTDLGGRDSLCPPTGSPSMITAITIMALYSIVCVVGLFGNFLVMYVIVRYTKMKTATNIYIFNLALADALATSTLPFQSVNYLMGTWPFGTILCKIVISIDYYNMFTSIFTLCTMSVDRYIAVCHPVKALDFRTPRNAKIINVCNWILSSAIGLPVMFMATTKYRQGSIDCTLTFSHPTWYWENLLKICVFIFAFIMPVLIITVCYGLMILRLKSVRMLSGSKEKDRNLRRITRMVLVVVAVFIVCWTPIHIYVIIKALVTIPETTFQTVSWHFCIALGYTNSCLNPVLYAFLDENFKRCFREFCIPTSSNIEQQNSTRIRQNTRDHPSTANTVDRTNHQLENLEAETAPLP

COc1ccc(S(=O)(=O)NCc2ccc(C(=O)NCCN(C)Cc3ccccc3)cc2)cc1
inactive: IC50 (Mu-type opioid receptor [1]) > 32 µM | EC50 (Mu-type opioid receptor [2]) > 32 µM | IC50 [3] 24 µM | IC50 [4] > 10 µM | EC50 [5] > 32 µM | IC50 [6] > 32 µM | EC50 [7] > 32 µM

Cc1ccccc1OCCC(=O)NCCc1ccc(S(N)(=O)=O)cc1
inactive: IC50 [8] > 32 µM

C=CC1=C(C(=O)O)N2C(=O)[C@@H](NC(=O)/C(=N/OCC(=O)O)c3csc(N)n3)[C@H]2SC1
active: IC50 [9] 4.25 µM | IC50 (Prothrombin) 68.6 µM | EC50 [10] < 60 nM | EC50 [11] 9.93 µM | IC50 [12] 1.04 µM | AC50 (ORF 73) 34.8 µM | EC50 (Streptococcus) < 60 nM | IC50 [13] 76.4 nM | IC50 [14] 500 nM

Cc1cccc(-n2nc3c4c(ccc3c2O)C(=O)c2ccccc2C4=O)c1
active: IC50 [15] 17.8 µM | EC50 [17] 114 µM | EC50 (HEK293 [19]) 8.5 µM | IC50 (Tumor necrosis factor) 16.3 µM | EC50 [21] 30 µM | IC50 [22] 17.1 µM
inactive: IC50 (HEK293 [16]) > 20 µM | IC50 (HEK293 [18]) > 20 µM | IC50 (HEK293 [20]) > 20 µM | IC50 (HEK293 [23]) > 20 µM
